Measurements reported in ChEMBL document CHEMBL4308841, “Synthesis, in vitro antiproliferative activity, and kinase inhibitory effects of pyrazole-containing diarylureas and diarylamides” (Eur J Med Chem, 2018).

Tests used:
[1] = test system: SF-295; assay: Growth inhibition of human SF295 cells assessed as cell growth at 100 uM incubated for 48 hrs by sulforhodamine B assay relative to control; type: functional; details: SF-295, 48 h, read-out: Activity
[2] = test system: MDA-MB-231; assay: Growth inhibition of human MDA-MB-231 cells assessed as cell growth at 0.01 uM incubated for 48 hrs by sulforhodamine B assay relative to control; type: functional; details: MDA-MB-231, 48 h, read-out: Activity
[3] = test system: NCI/ADR-RES; assay: Growth inhibition of human NCI/ADR-RES cells assessed as cell growth at 1 uM incubated for 48 hrs by sulforhodamine B assay relative to control; type: functional; details: read-out: Activity
[4] = test system: BT-549; assay: Growth inhibition of human BT549 cells assessed as cell growth at 0.01 uM incubated for 48 hrs by sulforhodamine B assay relative to control; type: functional; details: BT-549, 48 h, read-out: Activity
[5] = test system: SK-OV-3; assay: Growth inhibition of human SKOV3 cells assessed as cell growth at 1 uM incubated for 48 hrs by sulforhodamine B assay relative to control; type: functional; details: SK-OV-3, 48 h, read-out: Activity
[6] = test system: OVCAR-4; assay: Growth inhibition of human OVCAR4 cells assessed as cell growth at 0.1 uM incubated for 48 hrs by sulforhodamine B assay relative to control; type: functional; details: OVCAR-4, 48 h, read-out: Activity
[7] = test system: MCF7; assay: Growth inhibition of human MCF7 cells assessed as cell growth at 0.01 uM incubated for 48 hrs by sulforhodamine B assay relative to control; type: functional; details: MCF7, 48 h, read-out: Activity
[8] = test system: T47D; assay: Growth inhibition of human T47D cells assessed as cell growth at 1 uM incubated for 48 hrs by sulforhodamine B assay relative to control; type: functional; details: read-out: Activity
[9] = test system: NCI/ADR-RES; assay: Growth inhibition of human NCI/ADR-RES cells assessed as cell growth at 100 uM incubated for 48 hrs by sulforhodamine B assay relative to control; type: functional; details: read-out: Activity
[10] = test system: SNB-19; assay: Growth inhibition of human SNB19 cells assessed as cell growth at 0.01 uM incubated for 48 hrs by sulforhodamine B assay relative to control; type: functional; details: SNB-19, 48 h, read-out: Activity
[11] = test system: NCI-H522; assay: Growth inhibition of human NCI-H522 cells assessed as cell growth at 1 uM incubated for 48 hrs by sulforhodamine B assay relative to control; type: functional; details: NCI-H522, 48 h, read-out: Activity
[12] = test system: 786-0; assay: Growth inhibition of human 786-0 cells incubated for 48 hrs by sulforhodamine B assay; type: functional, cell-based; details: 786-0, 48 h
[13] = test system: K562; assay: Growth inhibition of human K562 cells assessed as cell growth at 0.01 uM incubated for 48 hrs by sulforhodamine B assay relative to control; type: functional; details: K562, 48 h, read-out: Activity
[14] = test system: MDA-MB-435; assay: Growth inhibition of human MDA-MB-435 cells incubated for 48 hrs by sulforhodamine B assay; type: functional, cell-based; details: MDA-MB-435, 48 h
[15] = test system: SF-295; assay: Growth inhibition of human SF295 cells assessed as cell growth at 1 uM incubated for 48 hrs by sulforhodamine B assay relative to control; type: functional; details: SF-295, 48 h, read-out: Activity
[16] = test system: SK-MEL-28; assay: Growth inhibition of human SK-MEL-28 cells assessed as cell growth at 0.01 uM incubated for 48 hrs by sulforhodamine B assay relative to control; type: functional; details: SK-MEL-28, 48 h, read-out: Activity
[17] = test system: SK-OV-3; assay: Growth inhibition of human SKOV3 cells assessed as cell growth at 100 uM incubated for 48 hrs by sulforhodamine B assay relative to control; type: functional; details: SK-OV-3, 48 h, read-out: Activity
[18] = test system: HCT-15; assay: Growth inhibition of human HCT15 cells assessed as cell growth at 100 uM incubated for 48 hrs by sulforhodamine B assay relative to control; type: functional; details: HCT-15, 48 h, read-out: Activity
[19] = test system: Malme-3M; assay: Growth inhibition of human MALME-3M cells assessed as cell growth at 0.1 uM incubated for 48 hrs by sulforhodamine B assay relative to control; type: functional; details: read-out: Activity
[20] = test system: SF-268; assay: Growth inhibition of human SF268 cells assessed as cell growth at 1 uM incubated for 48 hrs by sulforhodamine B assay relative to control; type: functional; details: SF-268, 48 h, read-out: Activity
[21] = test system: U-251; assay: Growth inhibition of human U251 cells assessed as cell growth at 0.01 uM incubated for 48 hrs by sulforhodamine B assay relative to control; type: functional; details: U-251, 48 h, read-out: Activity
[22] = test system: UO-31; assay: Growth inhibition of human UO31 cells assessed as cell growth at 0.1 uM incubated for 48 hrs by sulforhodamine B assay relative to control; type: functional; details: UO-31, 48 h, read-out: Activity
[23] = test system: SF-295; assay: Growth inhibition of human SF295 cells incubated for 48 hrs by sulforhodamine B assay; type: functional, cell-based; details: SF-295, 48 h
[24] = test system: SF-539; assay: Growth inhibition of human SF539 cells assessed as cell growth at 0.01 uM incubated for 48 hrs by sulforhodamine B assay relative to control; type: functional; details: SF-539, 48 h, read-out: Activity
[25] = test system: NCI-H226; assay: Growth inhibition of human NCI-H226 cells assessed as cell growth at 1 uM incubated for 48 hrs by sulforhodamine B assay relative to control; type: functional; details: NCI-H226, 48 h, read-out: Activity
[26] = test system: LOX IMVI; assay: Growth inhibition of human LOXIMVI cells assessed as cell growth at 0.1 uM incubated for 48 hrs by sulforhodamine B assay relative to control; type: functional; details: read-out: Activity
[27] = test system: RPMI-8226; assay: Growth inhibition of human RPMI8226 cells assessed as cell growth at 1 uM incubated for 48 hrs by sulforhodamine B assay relative to control; type: functional; details: RPMI-8226, 48 h, read-out: Activity
[28] = test system: K562; assay: Growth inhibition of human K562 cells incubated for 48 hrs by sulforhodamine B assay; type: functional, cell-based; details: K562, 48 h
[29] = test system: SNB-75; assay: Growth inhibition of human SNB75 cells assessed as cell growth at 100 uM incubated for 48 hrs by sulforhodamine B assay relative to control; type: functional; details: SNB-75, 48 h, read-out: Activity
[30] = test system: MOLT-4; assay: Growth inhibition of human MOLT4 cells incubated for 48 hrs by sulforhodamine B assay; type: functional, cell-based; details: MOLT-4, 48 h
[31] = read-out: LC50 (the source's name)
[32] = read-out: pLC50 (the source's name) (converted)

O=C(Nc1cccc(-n2cc(-c3ccncc3)c(-c3cc(O)cc(Cl)c3)n2)c1)Nc1ccc(Cl)c(C(F)(F)F)c1
growth at 100 µM [1]: -80% | growth at 0.01 µM [2]: 105% | growth at 1 µM [3]: 97% | growth at 0.01 µM [4]: 102% | growth at 1 µM [5]: 107% | growth at 0.1 µM [6]: 105% | growth at 0.01 µM [7]: 90% | growth at 1 µM [8]: 53% | growth at 100 µM [9]: -15% | growth at 0.01 µM [10]: 95% | growth at 1 µM [11]: 51% | GI50 ([12]; read-out: GI50): 1.53 µM | CC50 [12, 31]: 5.2 µM | TGI ([12]; read-out: TGI): 44.5 µM | GI50 ([12]; read-out: pGI50 (converted)): 1.82 µM | CC50 [12, 32]: 89.1 µM | TGI ([12]; read-out: pTGI (converted)): 4.47 µM | growth at 0.01 µM [13]: 101% | GI50 ([14]; read-out: GI50): 1.73 µM | LC50 ([14]; read-out: LC50): 55.2 µM | TGI ([14]; read-out: TGI): 30 µM | GI50 ([14]; read-out: pGI50 (converted)): 1.78 µM | LC50 ([14]; read-out: pLC50 (converted)): 8.51 µM | TGI ([14]; read-out: pTGI (converted)): 3.89 µM | growth at 1 µM [15]: 91% | growth at 0.01 µM [16]: 97% | growth at 100 µM [17]: -15% | growth at 100 µM [18]: -57% | growth at 0.1 µM [19]: 81% | growth at 1 µM [20]: 92% | growth at 0.01 µM [21]: 97% | growth at 0.1 µM [22]: 83% | GI50 ([23]; read-out: GI50): 2.06 µM | CC50 [23, 31]: 17 µM | TGI ([23]; read-out: TGI): 49.6 µM | GI50 ([23]; read-out: pGI50 (converted)): 2.57 µM | CC50 [23, 32]: 17.8 µM | TGI ([23]; read-out: pTGI (converted)): 4.9 µM | growth at 0.01 µM [24]: 104% | growth at 1 µM [25]: 96% | growth at 0.1 µM [26]: 95% | growth at 1 µM [27]: 88% | GI50 ([28]; read-out: GI50): 2.59 µM | LC50 ([28]; read-out: LC50): > 100 µM | TGI ([28]; read-out: TGI): 11 µM | GI50 ([28]; read-out: pGI50 (converted)): 2.57 µM | LC50 ([28]; read-out: pLC50 (converted)): > 100 µM | TGI ([28]; read-out: pTGI (converted)): 12 µM | growth at 100 µM [29]: -41% | GI50 ([30]; read-out: GI50): 1.99 µM | CC50 [30, 31]: > 100 µM | TGI ([30]; read-out: TGI): 58.1 µM | GI50 ([30]; read-out: pGI50 (converted)): 2 µM | CC50 [30, 32]: > 100 µM | TGI ([30]; read-out: pTGI (converted)): 5.75 µM
